{"source": "patent US11603391B2", "about": "“CATH2 derivatives” (Universiteit Utrecht Holding B.V., priority 2014, dated 2023)", "key": {"HD11 cells": {"system": "HD11 cells", "experiment": "Neutralization of LPS-induced interleukin-1β transcription in HD11 cells (real time PCR)", "format": "cell-based, chicken", "conditions": "20 μM peptide pre-incubated with 50 ng/ml LPS; 4 h", "protocol": "(§1) FIG. 11A-11B—Neutralization of lipopolysaccharide-induced interleukin-1β induction and nitric oxide production in HD11 cells by CMAP27 derived peptides. HD11 cells were seeded in 96 wells tissue culture treated plates (2×10^5 cell/mL) in RPMI-1640/10% FCS. Final concentrations of 50 ng/ml LPS were pre-incubated with or without 20 μM peptide for 30 min at 37° C. (5% CO2), applied to the cells and incubated for 4 h and 24 h. A) Transcription levels of interleukin-1 were determined by real time PCR (4 h only). B) Supernatants were collected for the determination of nitric oxide production (24 h incubations only) using the Griess assay. Significance levels: *P<0.05, **P<0.01, ***P<0.001. Data represents means±SEM from 3-4 independent experiments.\nas §1, with “FIG. 12A-12B—Substitution” for “FIG. 11A-11B—Neutralization”, “of phenylalanine residues by tryptophan enhances the” for “of lipopolysaccharide-induced interleukin-1β induction and nitric oxide production”, “in vitro LPS neutralization capacity of” for “in HD11 cells by”, “h or” for “h and”\nHD11 cells were seeded in 96 wells tissue culture treated plates (2×10^5 cell/mL) in RPMI-1640/10% FCS. Final concentrations of 50 ng/ml Salmonella minnesota LPS were pre-incubated with or without 20 μM peptide for 30 min at 37° C. (5% CO2), applied to the cells and incubated for 4 h and 24 h. A) Transcription levels of interleukin-1 were determined by real time PCR (4 h only). B) Supernatants were collected for the determination of nitric oxide production (24 h incubations only) using the Griess assay."}, "[1]": {"format": "in vivo, chicken (Ross308 broilers)", "conditions": "for bodyweight at 7 days post hatch (D7): 1 mg/kg in ovo at embryonic day 18, compared to vehicle treated birds; for HATCHABILITY: in vivo, 1 mg/kg", "protocol": "FIG. 8A-8B—Bodyweights of Ross308 broilers assessed at hatch (D0) (FIG. 8A) and at 7 days after hatch (D7) (FIG. 8B). Birds were injected at embryonic day 18 with 1 mg/kg peptide or vehicle.\nDCATH2 peptide and truncated analogs D-CMAP(1-21) and D-CMAP(4-21) were suspended in a Cholesterol/PBS formulation. Ross308 eggs were injected in the amnion fluid at 18 days of embryonic age with 100 μl of peptide containing suspension and returned to an egg incubator to hatch (˜ at 21 days embryonic age). Both control groups were injected in the amnion fluid with cholesterol/PBS formulation. The 1 mg/kg bodyweight dose of peptide was calculated based on an embryo body weight of 22 g. After hatch, all birds were weighed individually (D0) and transferred into isolator units per treatment (n=120/group). Birds were fed ad libitum and at 7 days after hatch (D7) bodyweights of individual birds were assessed."}, "[2]": {"system": "avian pathogenic Salmonella enteritidis pt13a", "experiment": "In ovo peptide treatment, subcutaneous Salmonella enteritidis challenge of broiler chicks", "format": "in vivo, chicken (Ross308 broilers)", "description": "FIG. 1A-1B—Differential and total counts of chicken peripheral blood leukocytes at 2 days p.i. after subcutaneous injection with 10^6 CFU of avian pathogenic Salmonella enteritis pt13a. A) total counts. B) differential counts.\nFIG. 2A-2B—Mortality after subcutaneous injection with 10^6 CFU of avian pathogenic Salmonella enteritis pt13a. A) Survival curves of peptide treated and nontreated birds during 7 days post infection. B) Reduction of mortality (%) relative to untreated infected birds (+ control).\n(§2) FIG. 3A-3B—Lesion scores determined at 7 days p.i. after subcutaneous injection with 10^6 CFU of avian pathogenic Salmonella enteritis pt13a. Left and right thoracic air sacs (respiratory tract), liver and heart (systemic infection) were separately evaluated using a scoring system: 0=no lesions, 1=mild lesions, 2=moderate lesions and 3=severe lesions. The mean lesion scores (MLS) were calculated as the sum of lesion scores per bird. A) The percentage of salmonellosis positive birds (MLS>1) and the reduction of salmonellosis positive birds relative to untreated infected birds. B) The average lesion scores relative to untreated infected birds.\nDCATH2 peptide (the full D-amino acid analog of CMAP1-26) was suspended in a cholesterol/PBS formulation. Ross308 eggs were injected in the amnion fluid at 18 days of embryonic age with 100 μl of DCATH2 containing suspension and returned to an egg incubator to hatch (˜ at 21 days embryonic age). Both control groups were injected in the amnion fluid with cholesterol/PBS formulation. The 1 mg/kg bodyweight dose of peptide was calculated based on an embryo body weight of 22 g. After hatch, birds were transferred into 4 pens per treatment (n=40/group). Three days after hatch, all birds except the negative control were subcutaneously inoculated with an avian pathogenic Salmonella enteritidis pt13a strain at a dose of 5×10^6 CFU per bird. Two day after challenge, 12 birds per group were sacrificed and used to take samples for blood and organ analysis. Blood samples were taken to determine total leukocyte counts and leukocyte differentiation. During the 7 day challenge period mortality was registered per day. At the end of the challenge period at 7 days post infection, all remaining birds were sacrificed and in the left and right side thoracic air sacs, liver and heart were examined for lesion scores."}, "[3]": {"system": "avian pathogenic Escherichia coli 506", "experiment": "In ovo peptide treatment, intratracheal E. coli challenge of broiler chicks", "format": "in vivo, chicken (Ross308 broilers)", "description": "FIG. 4A-4B—Differential and total counts of chicken peripheral blood leukocytes at 2 days p.i. after intra-tracheal injection with 10^6 CFU of avian pathogenic E. coli 506. A) total counts. B) differential counts.\nFIG. 5A-5B—Mortality after intra-tracheal injection with 10^6 CFU of avian pathogenic E. coli 506. A) Survival curves of peptide treated and nontreated birds during 7 days post infection. B) Reduction of mortality (%) relative to untreated infected birds.\nas §2, with “6A-6B—Lesion” for “3A-3B—Lesion”, “intratracheal” for “subcutaneous”, “E. coli 506.” for “Salmonella enteritis pt13a.”, “colibacillosis” for “salmonellosis”\nFIG. 7—Thoracic air sac counts 7 days after intratracheal injection with 10^6 CFU of avian pathogenic E. coli 506.\nDCATH2 peptide was suspended in a Cholesterol/PBS formulation. Ross308 eggs were injected in the amnion fluid at 18 days of embryonic age with 100 μl of DCATH2 containing suspension and returned to an egg incubator to hatch (˜ at 21 days embryonic age). Both control groups were injected in the amnion fluid with cholesterol/PBS formulation. The 1 mg/kg bodyweight dose of DCATH2 peptide was calculated based on an embryo body weight of 22 g. After hatch, birds were transferred into isolator units per treatment (n=54/group). Three days after hatch, all birds except the negative control were intratracheally inoculated with an avian pathogenic Escherichia coli 506 strain (UU strain) at a dose of 1×10^6 CFU per bird. Two day after challenge, 13 birds per group were sacrificed and used to take samples for blood and organ analysis. Blood samples were taken to determine total leukocyte counts and leukocyte differentiation. During the 7 day challenge period mortality was registered per day. At the end of the challenge period at 7 days post infection, all remaining birds were sacrificed and in the left and right side thoracic air sacs, liver and heart were examined for lesion scores."}, "[4]": {"conditions": "7 days p.i., 1 mg/kg in ovo, surviving birds"}, "[5]": {"conditions": "2 days p.i., 1 mg/kg in ovo, compared to untreated non-infected birds"}, "[6]": {"conditions": "2 days p.i., compared to non-treated, non-infected animals"}}, "note": "No end group written: not given here.", "data": [{"substance": "CMAP10-21-NH2: N-terminally truncated variant of CMAP1-21 (RRFRPKVTITIQ-NH2)", "values": [{"measurement": "LPS-neutralizing activity (block of LPS-induced IL-1β expression, in words)", "setting": "HD11 cells", "value": "lack LPS-neutralizing activity"}]}, {"substance": "Phe/Trp substituted analog of CMAP7-21-NH2: CMAP7-21-NH2 with phenylalanine substituted by tryptophan (RKIRRWRPKVTITIQ-NH2)", "values": [{"measurement": "LPS-induced IL-1β expression blocked", "setting": "HD11 cells", "value": 86.3, "unit": "%"}]}, {"substance": "Phe/Trp substituted analog of CMAP10-21-NH2: CMAP10-21-NH2 with phenylalanine substituted by tryptophan (RRWRPKVTITIQ-NH2)", "values": [{"measurement": "LPS-induced IL-1β expression blocked", "setting": "HD11 cells", "value": 71.9, "unit": "%"}]}, {"substance": "RFGRFLREIRRFRPKVTITIQ-NH2 [D-C(1-21)]", "values": [{"measurement": "bodyweight at 7 days post hatch (D7)", "setting": "[1]", "value": "significant higher"}, {"measurement": "HATCHABILITY", "setting": "[1]", "value": 95, "unit": "%"}]}, {"substance": "RFGRFLREIRRFRPKVTITIQGSARF-NH2 [DCATH2]", "values": [{"measurement": "delay of mortality", "setting": "[2]; 1 mg/kg in ovo at embryonic day 18, Salmonella challenge 3 days after hatch", "value": "up to 3 days p.i."}, {"measurement": "absolute number of peripheral blood heterophils", "setting": "[2]; 2 days p.i., 1 mg/kg in ovo, compared to non-infected birds", "value": "significantly higher"}, {"measurement": "decrease of severity of lesions in salmonellosis positive birds", "setting": "[2]; 7 days p.i., 1 mg/kg in ovo", "value": 69, "unit": "%"}, {"measurement": "reduction of mortality relative to untreated infected birds", "setting": "[2]; 7 days p.i., 1 mg/kg in ovo", "value": 50, "unit": "%"}, {"measurement": "reduction of salmonellosis positive birds (mean lesion score>1) relative to untreated infected birds", "setting": "[2]; [4]", "value": 53, "unit": "%"}, {"measurement": "absolute number of peripheral blood heterophils", "setting": "[3]; [5]", "value": "significantly higher"}, {"measurement": "absolute number of peripheral blood leukocytes", "setting": "[3]; [5]", "value": "significantly higher"}, {"measurement": "absolute number of lymphocytes", "setting": "[3]; [6]", "value": "No differences"}, {"measurement": "absolute number of monocytes", "setting": "[3]; [6]", "value": "No differences"}, {"measurement": "reduction of mortality relative to untreated infected birds", "setting": "[3]; 7 days p.i., 1 mg/kg in ovo", "value": 30, "unit": "%"}, {"measurement": "reduction of severity of colibacillosis-related lesions", "setting": "[3]; 7 days p.i., 1 mg/kg in ovo", "value": 64, "unit": "%"}, {"measurement": "reduction of colibacillosis positive birds (MLS>1) relative to untreated infected birds", "setting": "[3]; [4]", "value": 52, "unit": "%"}, {"measurement": "reduction of air sac colonization by E. coli", "setting": "[3]; 7 days p.i., 1 mg/kg in ovo, thoracic air sac counts", "value": 93, "unit": "%"}, {"measurement": "bodyweight at 7 days post hatch (D7)", "setting": "[1]", "value": "significant higher"}, {"measurement": "HATCHABILITY", "setting": "[1]", "value": 97, "unit": "%"}]}, {"substance": "RFGRFLRKIRRFRPKVTITIQGSARFG (CMAP27) [CATH2, in b91 probably DCATH2 is meant]", "values": [{"measurement": "reduction of severity of colibacillosis-related lesions", "setting": "[3]; 7 days p.i., 1 mg/kg in ovo", "value": 64, "unit": "%"}]}, {"substance": "RFLREIRRFRPKVTITIQ-NH2 [D-C(4-21)]", "values": [{"measurement": "bodyweight at 7 days post hatch (D7)", "setting": "[1]", "value": "significant higher"}, {"measurement": "HATCHABILITY", "setting": "[1]", "value": 94, "unit": "%"}]}]}
